Results from paper PMC8549260, “Crude extract and isolated bioactive compounds from Notholirion thomsonianum (Royale) Stapf as multitargets antidiabetic agents: in-vitro and molecular docking approaches” (BMC Complementary Medicine and Therapies, 2021).
Read-outs that look alike come from different tables or passages of the source.

Tests used:
[1] = biological target: Yeast α-Glucosidase (Saccharomyces cerevisiae, UniProt P53341); assay: biochemical; details: for IC50: α-Glucosidase IC50, Table 3, isolated compounds series
Experimental: In 0.10 M of phosphate buffer having pH of 6.90, the α-glucosidase enzyme solution was prepared (0.50 U/ mL). […] The same solution without the enzyme was used as a blank. The absorbances were recorded at 405 nm. All the experiments were repeated in triplicate. The percent inhibitions and subsequent IC50 (in μg/mL and also in μM) were calculated accordingly. […]

[2] = DPPH free radicals scavenging assay; details: for DPPH Percent Inhibition (mean ± SEM) / DPPH Assay % Scavenging (mean ± SEM): n = 3
Experimental: Plant samples solutions were prepared ranging from 125 to 1000 μg/ mL and were added to 0.004% methanolic solution of DPPH. Subsequent to 30 min incubation, absorbances were measured at 517 nm.
In free radicals’ assays including DPPH, ABTS and H2O2, the IC50s were calculated using same method.

[3] = biological target: T1, PTP1B (Homo sapiens, UniProt P18031); assay: Protein tyrosine phosphatase 1B inhibition; assay type: biochemical
T1 sequence (P18031 1-435): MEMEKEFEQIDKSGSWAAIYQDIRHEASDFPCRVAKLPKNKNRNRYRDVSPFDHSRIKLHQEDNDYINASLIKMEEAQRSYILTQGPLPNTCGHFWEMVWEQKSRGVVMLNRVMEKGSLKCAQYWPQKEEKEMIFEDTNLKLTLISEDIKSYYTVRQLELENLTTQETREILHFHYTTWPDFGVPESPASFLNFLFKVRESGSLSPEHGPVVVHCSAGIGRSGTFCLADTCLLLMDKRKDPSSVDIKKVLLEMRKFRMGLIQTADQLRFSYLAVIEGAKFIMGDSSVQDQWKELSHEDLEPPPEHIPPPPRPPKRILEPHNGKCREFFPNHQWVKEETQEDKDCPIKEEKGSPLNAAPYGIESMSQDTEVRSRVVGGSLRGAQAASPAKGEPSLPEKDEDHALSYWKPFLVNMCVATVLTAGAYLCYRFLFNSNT
Experimental: The solutions were then incubated for 40 min at 27 °C and absorbances were recorded at 405 nm using microplate reader. The experiments were repeated three times and percent inhibitions followed by IC50 values were recorded accordingly.

[4] = biological target: T2, α-amylase (Homo sapiens, UniProt P04746); assay: In-vitro α-amylase inhibition; assay type: biochemical; details: for IC50: Table 3, isolated compounds series
T2 sequence (P04746 16-511): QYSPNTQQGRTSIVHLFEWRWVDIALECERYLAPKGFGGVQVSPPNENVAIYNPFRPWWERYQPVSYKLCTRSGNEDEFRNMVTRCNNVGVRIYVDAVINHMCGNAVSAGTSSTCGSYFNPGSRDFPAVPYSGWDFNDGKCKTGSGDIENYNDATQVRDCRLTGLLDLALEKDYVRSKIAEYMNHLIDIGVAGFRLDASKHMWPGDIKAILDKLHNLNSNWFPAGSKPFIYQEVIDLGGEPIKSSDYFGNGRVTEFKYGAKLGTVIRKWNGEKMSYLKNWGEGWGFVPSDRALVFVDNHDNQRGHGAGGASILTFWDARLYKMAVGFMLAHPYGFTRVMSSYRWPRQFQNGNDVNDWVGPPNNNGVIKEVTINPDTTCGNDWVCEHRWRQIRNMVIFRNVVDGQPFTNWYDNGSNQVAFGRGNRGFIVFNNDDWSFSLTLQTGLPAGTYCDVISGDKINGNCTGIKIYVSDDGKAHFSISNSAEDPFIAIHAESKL
Experimental: The amylase solution was prepared in phosphate buffer followed by addition of different concentrations of plant extracts and isolated compounds. The solutions of test samples in enzyme solution were allowed to react. The solutions were incubated for a specific temperature and were added starch solution. Afterwards, a solution of dinitrosalicylic acid was added to both of the groups, i.e. sample and control solution groups. The solutions were then allowed to heat up in boiling water for a few min. […] The experiments were performed in triplicates and percent inhibitions were calculated as per the reported formula. […]

[5] = H2O2 free radicals scavenging assay; details: n = 3
Experimental: This method was used to determine the antioxidant potentials of crude extracts from N. thomsonianum. A solution of H2O2 (2 mM) was prepared in buffer solution of phosphate (50 mM, pH 7.40). In a test tube, 0.10 mL of crude extract was measured, and the volume was diluted to 0.40 mL by adding the phosphate buffer. Then 0.60 mL solution of H2O2 was added to it and was mixed properly. The absorbance of the crude sample and standard were recorded on 230 nm. The same procedure was repeated for all the crude samples.

[6] = ABTS free radicals scavenging assay; details: for ABTS Assay % Scavenging (mean ± SEM): n = 3
Experimental: Plant crude samples were also evaluated against ABTS free radicals using standard protocol. In this protocols, 7 mM solution of ABTS and 2.45 mM of potassium per sulfate were mixed and kept in dark at laboratory temperature for around 16 h till the color become dark. Solution of 0.01 M of phosphate buffer having pH 7.40 was mixed with it and absorbance was adjusted at 0.70 at 734 nm. Afterwards, solution of the plant extracts (300 μl) was added to ABTS solution (3 mL) and absorbance was recorded at 734 nm. Mixed the solution for 1 min and reduction in absorbance was recorded. The mixing and reduction were repeated for 6 min. The experiments were performed three times. The percent inhibitions and subsequent IC50 values of samples and standard ascorbic acid were calculated as per the standard procedure.

[7] = read-out: α-Glucosidase Percent Inhibition (mean ± SEM)
[8] = read-out: PTP1B Percent Inhibition (mean ± SEM)
[9] = read-out: α-Amylase Percent Inhibition (mean ± SEM)
[10] = 125 μg/mL, n = 3, read-out: PTP1B Percent Inhibition (mean ± SEM) (converted)
[11] = 250 μg/mL, n = 3, read-out: PTP1B Percent Inhibition (mean ± SEM) (converted)
[12] = 500 μg/mL, n = 3, read-out: PTP1B Percent Inhibition (mean ± SEM)
[13] = Table 3, 125 μg/mL, n = 3, read-out: α-Amylase Percent Inhibition (mean ± SEM) (converted)
[14] = Table 3, 250 μg/mL, n = 3, read-out: α-Amylase Percent Inhibition (mean ± SEM) (converted)
[15] = Table 3, 500 μg/mL, n = 3, read-out: α-Amylase Percent Inhibition (mean ± SEM)
[16] = read-out: Alpha glucosidase Percent Inhibition (mean ± SEM)
[17] = read-out: Alpha amylase Percent Inhibition (mean ± SEM)

Yeast α-Glucosidase, sequence (P53341 whole entry): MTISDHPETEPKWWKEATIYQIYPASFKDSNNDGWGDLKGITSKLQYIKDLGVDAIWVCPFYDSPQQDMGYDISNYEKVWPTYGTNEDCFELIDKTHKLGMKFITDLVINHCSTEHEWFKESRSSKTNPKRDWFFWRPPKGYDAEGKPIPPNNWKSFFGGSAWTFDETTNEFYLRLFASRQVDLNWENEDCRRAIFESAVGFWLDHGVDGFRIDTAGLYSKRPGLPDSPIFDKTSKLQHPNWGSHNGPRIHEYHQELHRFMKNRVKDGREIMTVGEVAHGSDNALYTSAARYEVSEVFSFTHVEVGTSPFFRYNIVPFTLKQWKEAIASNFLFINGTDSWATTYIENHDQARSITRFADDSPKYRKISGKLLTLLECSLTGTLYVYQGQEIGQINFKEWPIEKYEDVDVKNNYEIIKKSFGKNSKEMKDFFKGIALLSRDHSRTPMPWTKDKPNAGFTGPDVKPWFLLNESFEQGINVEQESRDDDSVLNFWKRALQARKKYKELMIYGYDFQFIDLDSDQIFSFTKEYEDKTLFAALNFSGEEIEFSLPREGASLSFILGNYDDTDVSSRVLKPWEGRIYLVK

| Structure (SMILES) | inhibition at 125 µg/mL [1, 7] [%] | inhibition at 250 µg/mL [1, 7] [%] | inhibition at 500 µg/mL [1, 7] [%] | IC50 [1] [µM] | IC50 ([1]; based on molecular weight) [µM] | DPPH Percent Inhibition (mean ± SEM) ([2]; Table 4, 125 μg/mL) [%] | DPPH Percent Inhibition (mean ± SEM) ([2]; Table 4, 250 μg/mL) [%] | DPPH Percent Inhibition (mean ± SEM) ([2]; Table 4, 500 μg/mL) [%] | IC50 [3] [µM] | IC50 ([3]; based on molecular weight) [µM] | IC50 [4] [µM] | IC50 ([4]; based on molecular weight) [µM] | inhibition at 125 µg/mL [4, 9] [%] | inhibition at 250 µg/mL [4, 9] [%] | inhibition at 500 µg/mL [4, 9] [%] | inhibition at 125 µg/mL [3, 10] [%] | inhibition at 250 µg/mL [3, 11] [%] | inhibition at 500 µg/mL [3, 12] [%] | inhibition at 125 µg/mL [4, 13] [%] | inhibition at 250 µg/mL [4, 14] [%] | further results |
| --- | --- | --- | --- | --- | --- | --- | --- | --- | --- | --- | --- | --- | --- | --- | --- | --- | --- | --- | --- | --- | --- |
| CCCC/C=C/C=O [Nt02] | 66.9 | 71.1 | 76.8 ± 2.24 | < 279 | < 279 | 74.78 ± 0.44 | 79.32 ± 0.40 | 86.60 ± 0.00 | < 279 | < 279 | < 279 | < 279 | 78.4 | 85.3 | 91.36 ± 0.49 | – | – | – | – | – | inhibition at 125 µg/mL [3, 8]: 85.8%; inhibition at 250 µg/mL [3, 8]: 90.9%; inhibition at 500 µg/mL [3, 8]: 93.03 ± 0.48% |
| C[C@H]1[C@H](C)CC[C@]2(C(=O)O)CC[C@]3(C)C(=CC[C@@H]4[C@@]5(C)CC[C@H](O)C(C)(C)[C@@H]5CC[C@]43C)[C@H]12 [Ursolic acid, reference compound] | – | – | – | – | – | – | – | – | – | – | – | – | – | – | – | 91.5 | 93.6 | 98.7 ± 1.32 | – | – | – |
| CC(C)=CC(=O)CC(C)c1ccc(C)cc1 (centres unmarked) [Nt01] | 44.4 | 51.9 | 55.6 ± 1.06 | – | – | 79.62 ± 0.03 | 84.36 ± 1.15 | 88.35 ± 0.89 | < 144 | < 145 | < 144 | < 145 | – | – | – | 83.4 | 88.7 | 90.09 ± 0.32 | 67.9 | 72.1 | inhibition at 500 µg/mL [4, 15]: 77.8 ± 2.24% |
| O=C1O[C@H]([C@@H](O)CO)C(O)=C1O [AA, Ascorbic acid] | – | – | – | – | – | 85.20 ± 0.49 | 88.47 ± 0.71 | 91.75 ± 0.42 | – | – | – | – | – | – | – | – | – | – | – | – | DPPH Assay % Scavenging (mean ± SEM) ([2]; Table 2, 125 μg/mL): 76.54 ± 0.54%; DPPH Assay % Scavenging (mean ± SEM) ([2]; Table 2, 250 μg/mL): 81.33 ± 0.88%; DPPH Assay % Scavenging (mean ± SEM) ([2]; Table 2, 500 μg/mL): 87.84 ± 0.26%; DPPH Assay % Scavenging (mean ± SEM) ([2]; Table 2, 1000 μg/mL): 92.55 ± 0.35%; DPPH Assay IC50 ([2]; Table 2, crude extracts series): < 0.1 µg/mL; H2O2 Assay % Scavenging (mean ± SEM) ([5]; 125 μg/mL): 68.00 ± 0.57%; H2O2 Assay % Scavenging (mean ± SEM) ([5]; 250 μg/mL): 71.50 ± 0.60%; H2O2 Assay % Scavenging (mean ± SEM) ([5]; 500 μg/mL): 74.66 ± 0.49%; H2O2 Assay % Scavenging (mean ± SEM) ([5]; 1000 μg/mL): 83.33 ± 0.88%; ABTS Assay IC50 [6]: < 0.1 µg/mL; ABTS Assay % Scavenging (mean ± SEM) ([6]; 125 μg/mL): 78.46 ± 0.58%; ABTS Assay % Scavenging (mean ± SEM) ([6]; 250 μg/mL): 80.43 ± 0.55%; ABTS Assay % Scavenging (mean ± SEM) ([6]; 500 μg/mL): 86.53 ± 0.60%; ABTS Assay % Scavenging (mean ± SEM) ([6]; 1000 μg/mL): 87.60 ± 0.40% |
| Cc1c(C)c2c(c(C)c1O)CCC(C)(CCCC(C)CCCC(C)CCCC(C)C)O2 (centres unmarked) [Nt03] | 70.6 | 73.4 | 78.35 ± 0.23 | < 72.6 | < 72.7 | 84.44 ± 0.15 | 87.14 ± 0.49 | 90.69 ± 0.14 | < 72.6 | < 72.7 | < 72.6 | < 72.7 | – | – | – | 82.3 | 87.2 | 90.83 ± 0.47 | 80.6 | 86.5 | inhibition at 500 µg/mL [4, 15]: 93.1 ± 1.04% |
| C[C@H]1O[C@H](O[C@H]2[C@H](O)[C@@H](O)[C@@H](O[C@H]3[C@H](O)[C@@H](O)C(O)O[C@@H]3CO)O[C@@H]2CO)[C@H](O)[C@@H](O)[C@@H]1N[C@H]1C=C(CO)[C@@H](O)[C@H](O)[C@H]1O (some centres unmarked) [Acarbose, reference compound] | 77.6 | 82.4 | 87.08 ± 0.47 | – | – | – | – | – | – | – | – | – | 83.9 | 89.5 | 95.23 ± 0.22 | – | – | – | – | – | inhibition at 125 µg/mL [1, 16]: 61.5%; inhibition at 250 µg/mL [1, 16]: 67.5%; inhibition at 500 µg/mL [1, 16]: 73.9%; inhibition at 1000 µg/mL [1, 16]: 76.87 ± 0.06%; inhibition at 125 µg/mL [4, 17]: 64.5%; inhibition at 250 µg/mL [4, 17]: 69%; inhibition at 500 µg/mL [4, 17]: 71.7%; inhibition at 1000 µg/mL [4, 17]: 78.63 ± 0.54% |
